Among the test systems are CAKI-1 renal; COLO 205 colon; K-562 leukemia; M14 melanoma; MDA-MB-231 breast; NCI/ADR-RES ovarian; OVCAR-8 ovarian; PC-3 prostate; SNB-75 CNS; NCI-H226 lung.
Holding throughout (assay): DTP human tumour cell line panel, 48 h

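96-well plates; 48 h exposure; 5 concentrations. Endpoints by linear interpolation between flanking doses. Not reached: highest tested concentration assigned. GI50 = concentration required for 50% inhibition of growth. At the TGI there is no net growth.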 Some results are limits rather than exact numbers.

For `C#CCN(Cc1nc2cc(C(F)(F)F)ccc2nc1-c1ccccc1)c1ccc(OC(F)(F)F)cc1`, the GI50 (usually the concentration giving 50% growth inhibition) with CAKI-1 renal is 62 µM; in the assay on COLO 205 colon, 45.4 µM; in the assay on K-562 leukemia, 33.9 µM; in the assay on M14 melanoma it was 50.3 µM; in the assay on MDA-MB-231 breast it was 28.4 µM; in the assay on NCI/ADR-RES ovarian, greater than 100 µM. For the same compound, the GI50 was 74.3 µM with OVCAR-8 ovarian, 44.4 µM with PC-3 prostate and greater than 100 µM in the assay on SNB-75 CNS. In addition, the TGI in the assay with CAKI-1 renal, in the assay on COLO 205 colon, with K-562 leukemia, with M14 melanoma, in the assay on MDA-MB-231 breast and with NCI/ADR-RES ovarian was greater than 100 µM in each case. Also, the TGI with OVCAR-8 ovarian, with PC-3 prostate and in the assay with SNB-75 CNS was greater than 100 µM throughout.

Regarding `CC(=O)CCc1ccc(OC2OC(COC(=O)c3cc(O)c(O)c(O)c3)C(O)C(O)C2OC(=O)/C=C/c2ccccc2)cc1` (stereo not given), the GI50 in the assay on CAKI-1 renal is 29.7 µM; with COLO 205 colon, 28.1 µM; in the assay with K-562 leukemia, 22.6 µM; in the assay with M14 melanoma, 18.6 µM; in the assay on MDA-MB-231 breast, 19.6 µM; with NCI-H226 lung, 16.9 µM. Besides, the GI50 with NCI/ADR-RES ovarian is greater than 100 µM; in the assay on OVCAR-8 ovarian, 21.2 µM; in the assay on PC-3 prostate, 33.4 µM. The TGI (as a rule, the concentration at which net growth stops) with CAKI-1 renal was greater than 100 µM; in the assay on COLO 205 colon, 89.4 µM; in the assay on K-562 leukemia it was 65.5 µM; with M14 melanoma, 37.4 µM; with MDA-MB-231 breast it was 44.5 µM; in the assay with NCI-H226 lung, 37 µM. Also, the TGI was greater than 100 µM in the assay on NCI/ADR-RES ovarian, 55 µM with OVCAR-8 ovarian and greater than 100 µM in the assay with PC-3 prostate.

On to `O=c1c2ccccc2c(Br)c(Br)c2ccccc12`, for which the GI50 in the assay with CAKI-1 renal was 1.78 µM; in the assay on COLO 205 colon, 8.61 µM; in the assay on M14 melanoma it was 4.8 µM; with MDA-MB-231 breast, 19.9 µM; with NCI-H226 lung, 24.1 µM; in the assay with NCI/ADR-RES ovarian, 16.5 µM. The GI50 in the assay with OVCAR-8 ovarian was 13.9 µM; in the assay with PC-3 prostate, 10.1 µM; with SNB-75 CNS, 19.2 µM. In addition, the TGI in the assay on CAKI-1 renal is 4.39 µM; with COLO 205 colon, 23.7 µM; in the assay with M14 melanoma, 16.3 µM; in the assay on MDA-MB-231 breast it was 50.7 µM; in the assay on NCI-H226 lung it was 79.5 µM; in the assay on NCI/ADR-RES ovarian it was 40.6 µM. Moreover, the figures for the TGI with OVCAR-8 ovarian, in the assay with PC-3 prostate and in the assay on SNB-75 CNS were 34.2 µM, 30.2 µM and 56 µM, respectively.

Take `Cc1ccc(NC(=O)Cc2ccc(/C=C/C(=O)c3ncc[nH]3)cc2)cc1`: the GI50 in the assay with CAKI-1 renal was 9.62 µM; in the assay with COLO 205 colon, 7.27 µM; in the assay with MDA-MB-231 breast, 9.46 µM; in the assay with NCI-H226 lung, 9.59 µM; in the assay with NCI/ADR-RES ovarian, 6.73 µM; in the assay with OVCAR-8 ovarian it was 7.24 µM. Moreover, the figures for the GI50 with PC-3 prostate and in the assay on SNB-75 CNS were 7.1 µM and 7 µM, respectively. In addition, the concentration for total growth inhibition (TGI) in the assay on CAKI-1 renal, in the assay with COLO 205 colon, with MDA-MB-231 breast, in the assay on NCI-H226 lung, with NCI/ADR-RES ovarian and in the assay with OVCAR-8 ovarian was greater than 25 µM each time. For the same compound, the total growth inhibition concentration (TGI) in the assay with PC-3 prostate and in the assay on SNB-75 CNS was greater than 25 µM in each case.

Regarding `COc1ccc(-n2cc(-c3cc(OC)c(OC)c(OC)c3)nc2SCc2ccccc2)cc1`, the GI50 with CAKI-1 renal is greater than 100 µM; in the assay on COLO 205 colon, 49.5 µM; in the assay on K-562 leukemia, 9.43 µM; in the assay on M14 melanoma, greater than 100 µM; with MDA-MB-231 breast it was greater than 100 µM; with NCI-H226 lung, greater than 100 µM. Moreover, the figures for the GI50 with NCI/ADR-RES ovarian, in the assay with PC-3 prostate and in the assay on SNB-75 CNS were 26.8 µM, 8.7 µM and 7.04 µM, respectively. Moreover, the TGI in the assay on CAKI-1 renal, with COLO 205 colon, in the assay with K-562 leukemia, with M14 melanoma, in the assay with MDA-MB-231 breast and in the assay with NCI-H226 lung was greater than 100 µM in each case. For the same compound, the TGI in the assay on NCI/ADR-RES ovarian was greater than 100 µM; with PC-3 prostate it was greater than 100 µM; in the assay with SNB-75 CNS, 66.8 µM.

Take `COc1ccc2c(c1O)C13CCN(C)C(C2)C1CCC1(C3)OCCO1` (stereo not given): the TGI in the assay with CAKI-1 renal, in the assay on COLO 205 colon, in the assay with M14 melanoma, in the assay on MDA-MB-231 breast, in the assay on NCI-H226 lung and in the assay with NCI/ADR-RES ovarian was greater than 100 µM each time. In addition, the TGI in the assay with OVCAR-8 ovarian, in the assay with PC-3 prostate and in the assay on SNB-75 CNS was greater than 100 µM throughout.

As for `O=C(Nc1ccccc1)c1nn(-c2cc(S(=O)(=O)O)c([N+](=O)[O-])cc2Cl)[n+](-c2cc(S(=O)(=O)[O-])c([N+](=O)[O-])cc2Cl)n1`, the concentration for total growth inhibition (TGI) is greater than 100 µM in the assay on CAKI-1 renal; greater than 100 µM with COLO 205 colon; greater than 100 µM in the assay on K-562 leukemia; greater than 100 µM in the assay with M14 melanoma; 94 µM in the assay on MDA-MB-231 breast; greater than 100 µM in the assay with NCI-H226 lung. Also, the TGI in the assay with NCI/ADR-RES ovarian, with PC-3 prostate and with SNB-75 CNS was greater than 100 µM in each case.

As to `O=c1cc(-c2ccccc2)oc2cc(O)c(O)c(O)c12`, the GI50 is 4.57 µM in the assay on CAKI-1 renal; 12.6 µM with K-562 leukemia; 22.9 µM in the assay with M14 melanoma; 14.1 µM with MDA-MB-231 breast; 19.3 µM with NCI-H226 lung; 16 µM with NCI/ADR-RES ovarian. For the same compound, the GI50 in the assay on OVCAR-8 ovarian was 46.5 µM; in the assay with PC-3 prostate, 17.4 µM; with SNB-75 CNS, greater than 100 µM. Moreover, the TGI with CAKI-1 renal was 19 µM; in the assay with K-562 leukemia, greater than 100 µM; in the assay on M14 melanoma, 92.2 µM; in the assay on MDA-MB-231 breast it was 36.8 µM; in the assay on NCI-H226 lung it was 58 µM; with NCI/ADR-RES ovarian, 44.6 µM. Besides, the TGI in the assay on OVCAR-8 ovarian, in the assay with PC-3 prostate and in the assay with SNB-75 CNS was greater than 100 µM throughout.

For `Nc1ncnc2c1ncn2Cc1ccc(C23CC4CC(CC(C4)C2)C3)c(OCc2cc(F)c(F)cc2F)c1`, the GI50 is 2.32 µM in the assay on CAKI-1 renal; 14.4 µM in the assay on COLO 205 colon; 6.39 µM in the assay with MDA-MB-231 breast; greater than 100 µM in the assay on NCI-H226 lung; 6.49 µM in the assay with NCI/ADR-RES ovarian; 9.66 µM in the assay on OVCAR-8 ovarian. For the same compound, the GI50 is 2.17 µM in the assay on PC-3 prostate and greater than 100 µM in the assay on SNB-75 CNS. Further, the TGI in the assay on CAKI-1 renal was 6.9 µM; with COLO 205 colon, greater than 100 µM; in the assay with MDA-MB-231 breast, greater than 100 µM; in the assay on NCI-H226 lung it was greater than 100 µM; in the assay with NCI/ADR-RES ovarian, greater than 100 µM; in the assay with OVCAR-8 ovarian it was greater than 100 µM. Also, the TGI was 10.9 µM in the assay with PC-3 prostate and greater than 100 µM in the assay with SNB-75 CNS.

(Values after PubChem BioAssay (NCI).)
